A short description of data set [1]: Superoxide scavenging, non-enzymatic KO2/NBT assay. Conditions: 100 µM; text says enzymatic assay. Here is the method:
Superoxide radicals scavenging activity (non-enzymatic assay): 1 mL PBS, pH 7.4 contains 0.04 mmol/L NBT and the tested hydrazone in the concentrations indicated on the figures. No drug was added to the control samples. One minute after the addition of 20 μL of KO2 dissolved in DMSO, the absorbance at 560 nm was measured.
The results from both assays have been presented as a percentage of the control sample.
The potency of the compounds selected as the most promising from the cell model systems and hMAOB inhibitory studies was estimated against enzymatically (xanthine/XO system) and non-enzymatically (KO2/NBT) produced superoxide radicals (Figure 7). In the xanthine-xanthine oxidase system the generation of O2^−^● is a result of an enzymatic reaction. The molecular mechanism of action of the XO enzyme is associated with catalysation of the reaction of oxidation of hypoxanthine and xanthine and generation of uric acid. During the process of reoxidation of the enzyme, the molecular oxygen acts as an electron acceptor and the formation of physiologically important ROS, such as the superoxide radical (O2^−^●) and hydrogen peroxide (H2O2), has been observed. In the potassium superoxide-containing systems, superoxide radical generation is due to the direct addition of the KO2 to the water sample solution. […]

The nature of data set [2]: MTT cytotoxicity on SH-SY5Y cells. The data set is classed as cell-based, human. Conditions: human, SH-SY5Y neuroblastoma cells, MTT test, 24 h incubation; read-out: IC50, in vitro cytotoxicity on SH-SY5Y cells. Here is the method:
(§1) Human neuroblastoma cell line SH-SY5Y was obtained from the European Collection of Cell Cultures (ECACC, Salisbury, UK). The cells were maintained in 75 cm^2 flasks at 37 °C in a humidified atmosphere with 5% CO2 and cultured in RPMI 1640 medium, supplemented with 10% fetal bovine serum and 2 mM L-glutamine.
(§2) MTT (Sigma-Aldrich Chemie GmbH, Schnelldorf, Germany) assay is based on interaction between tetrazolium dye 3-(4,5-dimethylthiazol-2-yl)-2,5-diphenyltetrazolium bromide and succinic dehydrogenase in the living cells’ mitochondria. In this reaction, the formed purple formazan crystals indicate the presence of viable cells. SH-SY5Y cells were seeded in 96-well microplates at a density 2.5 × 10^4 cells/well and allowed to attach to the well surface at 37 °C in a humidified atmosphere with 5% CO2 (24 h). Different concentrations of compounds ([…]) were added to cells and incubated for 24 h. For each concentration, a set of at least 8 wells were used. After the treatment, the solution in each well was substituted with MTT (3-(4,5-dimethylthiazol-2-yl)-2,5-diphenyltetrazolium bromide) solution (0.5 mg/mL in culture medium). The microplates were further incubated for 3 h at 37 °C and the obtained formazan crystals were dissolved by 100 µL/well of DMSO. The absorbance was measured in a multiplate reader Synergy 2 (BioTek Instruments, Inc, Highland Park, Winooski, VT, USA) at 570 nm (690 nm for background absorbance).
(§3) An important step in the development of new pharmacologically active compounds is the establishment of their safety profile. An in vitro toxicity evaluation was carried out on the neuroblastoma cell line SH-SY5Y, which is a well-established model in neuroscience. The neuroblastoma SH-SY5Y are human derived cells with relatively homogeneous neuroblast-like structure. The cells express a dopamine-β-hydroxylase and tyrosine hydroxylase enzyme activity, specific types of human proteins and protein isoforms. The possible neurotoxic effects of the potential drug candidates were measured by cell viability assay (MTT-test). The IC50 values were used as a robust parameter for comparison. The test compounds were dissolved in DMSO and serially diluted in cell culture medium to achieve final concentrations ranging from 1 to 500 µM; the culture medium containing DMSO in the corresponding concentration was used as untreated controls. A concentration dependent effect on cell viability was observed after 24 h incubation.

For data set [3], the system named is SH-SY5Y cells. Description: MTT cytotoxicity on SH-SY5Y cells. The data set is classed as cell-based, human. Conditions: MTT test, 24 h incubation; read-out: IC50, in vitro cytotoxicity on SH-SY5Y cells. Here is the method:
as §1, §2, §3

Data set [4] can be described thus: Fe(II)-induced oxidative damage of lecithin (TBA-RS). Conditions: 90 µmol/L. Here is the method:
The classical method of determining the TBA-reactive substances at 532 nm as described by Asakawa and Matsushita has been used. Two groups of measurement compositions named controls and samples were prepared in phosphate buffer (K2HPO4/KH2PO4, pH 7.4) for each of the used substrates. Both of them contained equivalent concentrations of lecithin (1 mg/mL) or 2-deoxyribose (0.5 mmol/L) and FeCl2 (0.1 mmol/L). In the controls, the tested hydrazones have been omitted and in the samples the effect of the newly designed compounds at the concentrations indicated below the figures has been determined. The obtained samples were incubated at 37 °C for 30 min. The reaction was stopped, and after adding 0.5 mL 2.8% trichloroacetic acid and 0.5 mL of thiobarbituric acid, the samples were heated in boiling water for 20 min. The lecithin containing samples were centrifuged at 3000 rpm for 20 min and the supernatant was aspired out. The results have been presented as a percentage of the control sample, treated only with ferrous iron where we expected maximum oxidative damage under the described conditions.

In data set [5] the test system is SH-SY5Y cells. Briefly: H2O2-induced oxidative stress model in SH-SY5Y cells. Conditions: for cell viability protection vs. H2O2-treatment: 50 µM, 90 min pre-incubation, H2O2 1 mM 15 min; for protective effect in H2O2-induced oxidative stress model (in words): 1, 10, 50 µM. The data set is classed as cell-based, human. The method, then: SH-SY5Y cells were seeded in 96-well plates at a density of 3.5 × 10^4/well and allowed to attach at the wells’ bottom overnight. […] Afterwards, the SH-SY5Y cells were washed with phosphate-buffered saline (PBS) to remove the extracellular amount of the test compounds. […] Then, the contents of all wells were changed with culture medium. After 24 h, the amount of attached viable cells was evaluated by MTT assay. […] Rasagiline and melatonin (Sigma-Aldrich Chemie GmbH) were used as reference compounds because of their well-established neuroprotective activity. […] The toxic mechanisms of hydrogen peroxide include the generation of reactive hydroxyl radicals and formation of products which could damage cellular lipids, proteins and DNA. […] For comparison, the effects of two compounds with well established antioxidant activity—rasagiline and melatonin—were also evaluated.

As for `O=C(CCn1c(=S)n(CCC(=O)NN=Cc2ccccc2O)c2ccccc21)NN=Cc1ccccc1O` [3e, 3,3′-(2-Thioxo-1H-benzo[d]imidazole-1,3(2H)-diyl)bis(N′-(2-hydroxybenzylidene)propanehydrazide)], the “increase of absorbance compared to the controls” value in data set [1] is reported as 1.5 times. The IC50 at 24 h in data set [2] is over 200 µM. Further, the IC50 in the data set with SH-SY5Y cells [3] was 235 µM.

For the compound `O=C(CCn1c(=S)n(CCC(=O)NN=Cc2cccc(O)c2O)c2ccccc21)NN=Cc1cccc(O)c1O` [3h, 3,3′-(2-Thioxo-1H-benzo[d]imidazole-1,3(2H)-diyl)bis(N′-(2,3-dihydroxybenzylidene)propanehydrazide)], in data set [4] (lecithin 1 mg/mL, FeCl2 0.1 mmol/L), the “sample/control absorbance ratio (% of the control), lecithin peroxidation” value is “around 40%”. The IC50 at 24 h in data set [2] was over 250 µM. The IC50 in the data set with SH-SY5Y cells [3] was 296 µM. Also, in the data set on SH-SY5Y cells [5], the “cell viability protection vs. H2O2-treatment” value is 79%; the “protective effect in H2O2-induced oxidative stress model (in words)” value was “even more pronounced than those of melatonin and rasagiline”.

`O=C(CCn1c(=S)n(CCC(=O)NN=Cc2ccc(O)cc2O)c2ccccc21)NN=Cc1ccc(O)cc1O` [3i, 3,3′-(2-Thioxo-1H-benzo[d]imidazole-1,3(2H)-diyl)bis(N′-(2,4-dihydroxybenzylidene)propanehydrazide)]: the “increase of absorbance compared to the controls” value in data set [1] is 2.5 times. Besides, the “lecithin peroxidation effect compared with 3a (in words)” value in data set [4] was “statistically identical effect to 3a”. In addition, in data set [2], the IC50 at 24 h was over 250 µM. Besides, the IC50 with SH-SY5Y cells [3] came out at 301 µM. Besides, in the data set with SH-SY5Y cells [5], the “cell viability protection vs. H2O2-treatment” value came out at 80%; the “protective effect in H2O2-induced oxidative stress model (in words)” value is “even more pronounced than those of melatonin and rasagiline”.

Regarding `COc1ccc(C=NNC(=O)CCn2c(=S)n(CCC(=O)NN=Cc3ccc(OC)cc3O)c3ccccc32)c(O)c1` [3m, 3,3′-(2-Thioxo-1H-benzo[d]imidazole-1,3(2H)-diyl)bis(N′-(2-hydroxy-4-methoxybenzylidene)propanehydrazide)], the IC50 at 24 h in data set [2] is over 200 µM. In addition, in the data set on SH-SY5Y cells [3], the concentration for half-maximal inhibition (IC50) was determined as 211 µM.

Values taken from PMC9138090, “Study on the Neuroprotective, Radical-Scavenging and MAO-B Inhibiting Properties of New Benzimidazole Arylhydrazones as Potential Multi-Target Drugs for the Treatment of Parkinson’s Disease” (Antioxidants, 2022).
